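These data come from cells grown in 96-well plates and exposed to compound for 48 hours at five concentrations. GI50: concentration for 50% inhibition of growth.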 Activity calls are given as the source filed them. Cut-off read from the data, not from the text of the source: active = GI50 up to about 1.1 µM and inactive = higher.
Assays:
Experiment in all cases: inhibition of tumour cell growth, NCI panel, 48 h
[1] = system: LOX IMVI
[2] = system: SNB-19
[3] = system: UO-31
[4] = system: OVCAR-5
[5] = system: Malme-3M
[6] = system: SF-295
[7] = system: ACHN
[8] = system: NCI-H522
[9] = system: DMS-273
[10] = system: HOP-18
[11] = system: KM12
[12] = system: SF-539
[13] = system: HOP-92
[14] = system: OVCAR-3
[15] = system: COLO 205
[16] = system: UACC-62
[17] = system: OVCAR-4
[18] = system: HCC 2998
[19] = system: MOLT-4
[20] = system: SR
[21] = system: HCT-116
[22] = system: RXF 631
[23] = system: OVCAR-8
[24] = system: UACC-257
[25] = system: TK-10
[26] = system: SK-MEL-28
[27] = system: SF-268
[28] = system: SN12C
[29] = system: SW-620
[30] = system: M19-MEL
[31] = system: SK-MEL-5
[32] = system: IGROV-1
[33] = system: NCI-H23
[34] = system: HT-29
[35] = system: NCI-H460
[36] = system: DMS-114
[37] = system: DLD-1
[38] = system: U-251
[39] = system: XF498
[40] = system: SNB-75
[41] = system: HOP-62
[42] = system: M14
[43] = system: K562
[44] = system: CCRF-CEM
[45] = system: HL-60
[46] = system: 786-0
[47] = system: SNB-78
[48] = system: CAKI-1
[49] = system: LXFL 529
[50] = system: RXF 393
[51] = system: A549
[52] = system: A498
[53] = system: EKVX
[54] = system: HCT-15
[55] = system: SK-OV-3
[56] = system: SK-MEL-2
[57] = system: KM-20L2
[58] = system: RPMI-8226
[59] = system: NCI-H226

Compound: Cc1cccc(NC(=O)CC(=O)N2N=C(N(CCC#N)c3ccc(Cl)cc3)CC2c2ccccc2)c1 (stereo not given)
- GI50 [1]: > 100 µM (inactive)
- GI50 [2]: > 100 µM (inactive)
- GI50 [3]: > 100 µM (inactive)
- GI50 [4]: > 100 µM (inactive)
- GI50 [5]: > 100 µM (inactive)
- GI50 [6]: > 100 µM (inactive)
- GI50 [7]: > 100 µM (inactive)
- GI50 [8]: > 100 µM (inactive)
- GI50 [9]: > 100 µM (inactive)
- GI50 [10]: > 100 µM (inactive)
- GI50 [11]: > 100 µM (inactive)
- GI50 [12]: > 100 µM (inactive)
- GI50 [13]: > 100 µM (inactive)
- GI50 [14]: > 100 µM (inactive)
- GI50 [15]: > 100 µM (inactive)
- GI50 [16]: > 100 µM (inactive)
- GI50 [17]: > 100 µM (inactive)
- GI50 [18]: > 100 µM (inactive)
- GI50 [19]: > 100 µM (inactive)
- GI50 [20]: > 100 µM (inactive)
- GI50 [21]: > 100 µM (inactive)
- GI50 [22]: > 100 µM (inactive)
- GI50 [23]: > 100 µM (inactive)
- GI50 [24]: > 100 µM (inactive)
- GI50 [25]: > 100 µM (inactive)
- GI50 [26]: > 100 µM (inactive)
- GI50 [27]: > 100 µM (inactive)
- GI50 [28]: > 100 µM (inactive)
- GI50 [29]: > 100 µM (inactive)
- GI50 [30]: > 100 µM (inactive)
- GI50 [31]: > 100 µM (inactive)
- GI50 [32]: > 100 µM (inactive)
- GI50 [33]: > 100 µM (inactive)
- GI50 [34]: > 100 µM (inactive)
- GI50 [35]: > 100 µM (inactive)
- GI50 [36]: > 100 µM (inactive)
- GI50 [37]: > 100 µM (inactive)
- GI50 [38]: > 100 µM (inactive)
- GI50 [39]: > 100 µM (inactive)
- GI50 [40]: > 100 µM (inactive)
- GI50 [41]: > 100 µM (inactive)
- GI50 [42]: > 100 µM (inactive)
- GI50 [43]: > 100 µM (inactive)
- GI50 [44]: > 100 µM (inactive)
- GI50 [45]: > 100 µM (inactive)
- GI50 [46]: > 100 µM (inactive)
- GI50 [47]: > 100 µM (inactive)
- GI50 [48]: > 100 µM (inactive)
- GI50 [49]: > 100 µM (inactive)
- GI50 [50]: > 100 µM (inactive)
- GI50 [51]: > 100 µM (inactive)

Compound: O=C(NN1C(=O)CSC1c1ccc(Cl)c(Cl)c1)c1ccncc1 (stereo not given)
- GI50 [1]: 66.4 µM (inactive)
- GI50 [2]: > 100 µM (inactive)
- GI50 [52]: 29.9 µM (inactive)
- GI50 [3]: 85.1 µM (inactive)
- GI50 [53]: > 100 µM (inactive)
- GI50 [4]: > 100 µM (inactive)
- GI50 [5]: 87.7 µM (inactive)
- GI50 [6]: 54.3 µM (inactive)
- GI50 [54]: 72.6 µM
- GI50 [7]: 38.4 µM (inactive)
- GI50 [8]: 72.8 µM (inactive)
- GI50 [55]: > 100 µM (inactive)
- GI50 [9]: 64.3 µM (inactive)
- GI50 [10]: < 0.01 µM (active)
- GI50 [11]: 38.1 µM (inactive)
- GI50 [12]: > 100 µM (inactive)
- GI50 [15]: > 100 µM (inactive)
- GI50 [16]: 31.8 µM (inactive)
- GI50 [17]: 54.1 µM (inactive)
- GI50 [18]: 46.2 µM (inactive)
- GI50 [19]: 67.8 µM (inactive)
- GI50 [22]: 94.4 µM (inactive)
- GI50 [23]: 86.7 µM (inactive)
- GI50 [24]: 54.2 µM (inactive)
- GI50 [25]: 57.7 µM (inactive)
- GI50 [26]: > 100 µM (inactive)
- GI50 [27]: 78.3 µM (inactive)
- GI50 [28]: 75.9 µM (inactive)
- GI50 [29]: > 100 µM (inactive)
- GI50 [31]: 46.9 µM (inactive)
- GI50 [32]: 34.4 µM (inactive)
- GI50 [33]: 84.7 µM (inactive)
- GI50 [34]: 60.1 µM (inactive)
- GI50 [36]: 30.6 µM (inactive)
- GI50 [37]: 38.6 µM (inactive)
- GI50 [56]: 83.8 µM (inactive)
- GI50 [38]: > 100 µM (inactive)
- GI50 [39]: 48 µM (inactive)
- GI50 [57]: 74.6 µM (inactive)
- GI50 [40]: > 100 µM (inactive)
- GI50 [42]: 44.5 µM (inactive)
- GI50 [43]: 37.8 µM (inactive)
- GI50 [44]: 77.3 µM (inactive)
- GI50 [58]: 42.9 µM (inactive)
- GI50 [45]: 37.8 µM (inactive)
- GI50 [47]: 64.6 µM (inactive)
- GI50 [48]: > 100 µM (inactive)
- GI50 [49]: 71.6 µM (inactive)
- GI50 [50]: 58.3 µM (inactive)
- GI50 [51]: 58.1 µM (inactive)

Compound: CCN(CC)CCCNc1nccc2c(C)c3[nH]c4ccncc4c(=O)c3cc12
- GI50 [1]: 0.975 µM (active)
- GI50 [2]: 2.87 µM (inactive)
- GI50 [52]: 7.28 µM (inactive)
- GI50 [3]: 9.79 µM (inactive)
- GI50 [53]: 5.68 µM (inactive)
- GI50 [4]: 3.72 µM (inactive)
- GI50 [5]: 3.83 µM (inactive)
- GI50 [6]: 3.64 µM (inactive)
- GI50 [54]: 8.71 µM
- GI50 [7]: 1.8 µM (inactive)
- GI50 [8]: 0.52 µM (active)
- GI50 [55]: 3.77 µM (inactive)
- GI50 [9]: 2.19 µM (inactive)
- GI50 [10]: 2.52 µM (inactive)
- GI50 [11]: 3.52 µM (inactive)
- GI50 [12]: 2.45 µM (inactive)
- GI50 [13]: 1.75 µM (inactive)
- GI50 [14]: 1.8 µM (inactive)
- GI50 [15]: 2.55 µM (inactive)
- GI50 [16]: 1.53 µM (inactive)
- GI50 [17]: 0.604 µM (active)
- GI50 [18]: 2.37 µM (inactive)
- GI50 [19]: 0.33 µM (active)
- GI50 [20]: 0.13 µM (active)
- GI50 [21]: 0.514 µM (active)
- GI50 [22]: 1.92 µM (inactive)
- GI50 [23]: 0.557 µM (active)
- GI50 [24]: 6.84 µM (inactive)
- GI50 [25]: 3.18 µM (inactive)
- GI50 [26]: 3.27 µM (inactive)
- GI50 [27]: 0.643 µM (active)
- GI50 [28]: 1.5 µM (inactive)
- GI50 [29]: 1.84 µM (inactive)
- GI50 [31]: 3.57 µM (inactive)
- GI50 [32]: 2.93 µM (inactive)
- GI50 [33]: 1.95 µM (inactive)
- GI50 [34]: 1.32 µM (inactive)
- GI50 [35]: 1.71 µM (inactive)
- GI50 [36]: 0.494 µM (active)
- GI50 [37]: 1.79 µM (inactive)
- GI50 [56]: 2.89 µM (inactive)
- GI50 [38]: 2.19 µM (inactive)
- GI50 [39]: 2.46 µM (inactive)
- GI50 [57]: 4.11 µM (inactive)
- GI50 [40]: 2.24 µM (inactive)
- GI50 [41]: 3.11 µM (inactive)
- GI50 [42]: 2.84 µM (inactive)
- GI50 [43]: 2.61 µM (inactive)
- GI50 [44]: 0.746 µM (active)
- GI50 [58]: 2.64 µM (inactive)
- GI50 [45]: 2.79 µM (inactive)
- GI50 [46]: 0.977 µM (active)
- GI50 [47]: 2.2 µM (inactive)
- GI50 [59]: 2.24 µM (inactive)
- GI50 [48]: 1.91 µM (inactive)
- GI50 [49]: 1.48 µM (inactive)
- GI50 [50]: 0.558 µM (active)
- GI50 [51]: 3.01 µM (inactive)

Compound: O=C1c2cccc3cccc(c23)C(=O)N1CCN(CCO)CCO
- GI50 [1]: 18 µM (inactive)
- GI50 [2]: 38.3 µM (inactive)
- GI50 [52]: 17.3 µM (inactive)
- GI50 [3]: 30.5 µM (inactive)
- GI50 [53]: 31.1 µM (inactive)
- GI50 [4]: 20.9 µM (inactive)
- GI50 [5]: 21.2 µM (inactive)
- GI50 [6]: 47.4 µM (inactive)
- GI50 [54]: 22.8 µM
- GI50 [7]: 23.9 µM (inactive)
- GI50 [55]: 55.1 µM (inactive)
- GI50 [9]: 22.8 µM (inactive)
- GI50 [10]: 75 µM (inactive)
- GI50 [11]: 29.5 µM (inactive)
- GI50 [12]: 23.5 µM (inactive)
- GI50 [13]: 26.7 µM (inactive)
- GI50 [14]: 33.8 µM (inactive)
- GI50 [15]: 15.6 µM (inactive)
- GI50 [16]: 20.6 µM (inactive)
- GI50 [17]: 25.5 µM (inactive)
- GI50 [18]: 26.2 µM (inactive)
- GI50 [19]: 24.2 µM (inactive)
- GI50 [20]: 11.3 µM (inactive)
- GI50 [21]: 16.9 µM (inactive)
- GI50 [22]: 35.8 µM (inactive)
- GI50 [23]: 16.3 µM (inactive)
- GI50 [24]: 22.5 µM (inactive)
- GI50 [25]: 17.5 µM (inactive)
- GI50 [26]: 35.8 µM (inactive)
- GI50 [27]: 35.6 µM (inactive)
- GI50 [28]: 25.4 µM (inactive)
- GI50 [29]: 19.1 µM (inactive)
- GI50 [30]: 21.5 µM (inactive)
- GI50 [31]: 17.2 µM (inactive)
- GI50 [32]: 32.7 µM (inactive)
- GI50 [33]: 25.4 µM (inactive)
- GI50 [34]: 27.9 µM (inactive)
- GI50 [35]: 23.4 µM (inactive)
- GI50 [37]: 30.6 µM (inactive)
- GI50 [56]: 12.2 µM (inactive)
- GI50 [38]: 32.4 µM (inactive)
- GI50 [39]: 28.5 µM (inactive)
- GI50 [57]: 21.1 µM (inactive)
- GI50 [40]: 30.1 µM (inactive)
- GI50 [41]: 31.7 µM (inactive)
- GI50 [42]: 20 µM (inactive)
- GI50 [43]: 25.5 µM (inactive)
- GI50 [44]: 30.3 µM (inactive)
- GI50 [58]: 12.9 µM (inactive)
- GI50 [45]: > 100 µM (inactive)
- GI50 [46]: 40.6 µM (inactive)
- GI50 [47]: 42.1 µM (inactive)
- GI50 [59]: 16 µM (inactive)
- GI50 [49]: 32.3 µM (inactive)
- GI50 [50]: 20.9 µM (inactive)
- GI50 [51]: 27.2 µM (inactive)
